Measurements as given in EPA's ToxValDB 9.5.
Values joined by “and” are separate entries in the source; they are usually repeats but may differ in a detail not shown here. Equal entries are not always repeated.

Experiments:
Rattus norvegicus = conditions: for LD50: acute
Canidae = conditions: for NOAEL: diet, M/F, Beagle
[1] = subchronic, duration: 13 weeks, oral, gavage, M/F, Crj:CD, no effects
[2] = subchronic, duration: 90 days, oral, diet
[3] = subchronic, duration: 90 days, oral
[4] = subchronic, duration: 90 days, oral, M/F, Sprague-Dawley, histopathology: neoplastic
[5] = subchronic, duration: 90 days, oral, gavage, M, hematological
[6] = subchronic, duration: 90 days, no effects
[7] = subchronic, duration: 90 days, oral, diet, M/F, Sprague-Dawley, histopathology: nonneoplastic
[8] = subchronic, duration: 90 days, clinical chemistry
[9] = subchronic, duration: 90 days, oral, diet, M/F, Wistar, no effects
[10] = subchronic, duration: 90 days, oral, diet, M/F, no effects
[11] = subchronic, duration: 90 days, oral, gavage, M/F, body weight
[12] = subchronic, duration: 13 weeks, oral, gavage

## CSc1nccnc1C(C)C [Pyrazine, 2-(1-methylethyl)-3-(methylthio)-]
Rattus norvegicus; subchronic, duration: 13 weeks, oral, diet, M/F, no effects
  NOAEL: 1.63 mg/kg-day

## Cc1cc2nc3c(=O)[nH]c(=O)nc-3n(C[C@H](O)[C@H](O)[C@H](O)CO)c2cc1C [Riboflavin]
Rattus norvegicus; subchronic, duration: 90 days, M/F, Wistar, no effects
  NOAEL: 160 mg/kg-day

## NCCS(=O)(=O)[O-].NCCS(=O)(=O)[O-].[Fe+2] [Iron(II) taurate]
Rattus norvegicus; [1]
  NOAEL: 1000 mg/kg-day

## NC(N)=O [Urea]
Rattus norvegicus; oral, mortality
  LD50: 14300 mg/kg-day
Rattus norvegicus; reproduction developmental, reproduction
  NOEL: 2250 mg/kg-day

## O=C1CCCCCN1 [Caprolactam]
Rattus norvegicus; [2]
  NOEL: 750 mg/kg-day

## C=C=CC(C)C(=O)OCC (stereo not drawn) [3,4-Pentadienoic acid, 2-methyl-, ethyl ester]
Rattus norvegicus; chronic, duration: 92 days
  NOAEL: 1 mg/kg-day

## CC(C)(C)c1ccc(OP(Oc2ccc(C(C)(C)C)cc2C(C)(C)C)Oc2ccc(C(C)(C)C)cc2C(C)(C)C)c(C(C)(C)C)c1 [Tris(2,4-di-tert-butylphenyl) phosphite]
Rattus norvegicus; chronic, duration: 2 years, oral, no effects
  NOAEL: 58 mg/kg-day

## NCCS(=O)(=O)O [l-Taurine]
Rattus norvegicus; [1]
  NOAEL: 1000 mg/kg-day

## O=C(O)c1cc(O)c(O)c(O)c1 [Gallic acid]
Rattus norvegicus; subchronic, duration: 13 weeks, oral, M/F, organ weight
  NOAEL: 119 mg/kg-day

## CCOC(=O)c1ccccc1O [Ethyl salicylate]
Rattus norvegicus; chronic, duration: 2 years, oral, growth
  NOAEL: 50 mg/kg-day

## CC1SCCSS1 (stereo not drawn) [1,2,4-Trithiane, 3-methyl-]
Rattus norvegicus; subchronic, duration: 13 weeks, oral, diet
  NOEL: 0.3 mg/kg-day

## NC[C@@H]1O[C@H](O[C@H]2[C@@H](O)[C@H](O[C@@H]3[C@@H](O)[C@H](N)C[C@H](N)[C@H]3O[C@H]3O[C@H](CO)[C@@H](O)[C@H](O)[C@H]3N)O[C@@H]2CO)[C@H](N)[C@@H](O)[C@@H]1O.O=S(=O)(O)O [Paromomycin sulfate]
Canidae; chronic, oral, Dog Other
  NOEL: 3.4 mg/kg-day

## CSCc1ccccc1 [Benzyl methyl sulfide]
Rattus norvegicus; [3]
  NOAEL: 0.43 mg/kg-day

## CCC(=O)c1ccc[nH]1 [2-Propionylpyrrole]
Rattus norvegicus; [4]
  NOAEL: 0.048 mg/kg-day
Rattus norvegicus; [5]
  NOAEL: 48 mg/kg-day

## CCCCC(CC)COC(=O)c1ccc(N(C)C)cc1 (stereo not drawn) [2-Ethylhexyl 4-(dimethylamino)benzoate]
Rattus norvegicus; short-term, duration: 4 weeks, M/F, histopathology: nonneoplastic
  NOAEL: 100 mg/kg-day

## COC(=O)[C@H](Cc1ccccc1)NC(=O)[C@H](CC(=O)O)NCCC(C)(C)C [Neotame]
Canidae; chronic, duration: 52 weeks, oral, clinical chemistry
  NOAEL: 200 mg/kg-day

## O=C([O-])c1ccccn1.O=C([O-])c1ccccn1.O=C([O-])c1ccccn1.[Cr+3] [Chromium picolinate]
Rattus norvegicus; chronic, duration: 2 years, M/F, Fischer 344, no effects
  NOAEL: 2400 mg/kg-day

## CC(/C=C/C=C(C)/C=C/C(=O)[O-])=C\C=C\C=C(C)\C=C\C=C(C)\C=C\C(=O)[O-].[K+].[K+] [Dipotassium 6,6'-diapo-psi,psi-carotenedioate]
Rattus norvegicus; subchronic, duration: 13 weeks, oral, diet, M/F, Sprague-Dawley, clinical chemistry
  NOAEL: 30 mg/kg-day

## Cc1ccc(OCC(=O)N(Cc2cccs2)c2ccn[nH]2)cc1
Rattus norvegicus; reproduction developmental, oral, gavage, F, no effects
  NOAEL: 1000 mg/kg-day
Rattus norvegicus; subchronic, duration: 13 weeks, oral, gavage, M/F, no effects
  NOAEL: 100 mg/kg-day

## CCCCCCCCCCCC(=O)N[C@@H](CCCN=C(N)N)C(=O)OCC [N alpha-Lauroyl-L-arginine ethyl ester]
Rattus norvegicus; subchronic, duration: 13 weeks, oral, M/F, Sprague-Dawley, clinical chemistry
  NOAEL: 47 mg/kg-day

## CC1=C(C=O)C(C)(C)CC=C1 [Safranal]
Canidae; subchronic, duration: 90 days, Dog Other, no effects
  LEL: 120 mg/kg-day
Rattus norvegicus; subchronic, duration: 90 days
  NOEL: 10 mg/kg-day
Rattus norvegicus; subchronic, duration: 90 days, oral, gavage, F, no effects
  LEL: 120 mg/kg-day

## O=C(O)c1ccc(C(=O)O)o1 [2,5-Furandicarboxylic acid]
Rattus norvegicus; subchronic, duration: 90 days, oral, gavage, M/F, Wistar, body weight
  NOAEL: 300 mg/kg-day

## C=CO.OCCO
Canidae; chronic, duration: 9 months, oral, no effects
  NOAEL: 800 mg/kg-day

## CCCCCO [1-Pentanol]
Rattus norvegicus; subchronic, duration: 90 days, oral, gavage, no effects
  NOAEL: 1000 mg/kg-day

## CC1OCCC1=O (stereo not drawn) [2-Methyltetrahydrofuran-3-one]
Rattus norvegicus; [6]
  NOAEL: 91 mg/kg-day

## CC(=O)N[C@H]1[C@H](O[C@H]2[C@@H](O)[C@@H](CO)O[C@@H](O[C@H]3[C@H](O)[C@@H](O)C(O)O[C@@H]3CO)[C@@H]2O)O[C@H](CO)[C@@H](O)[C@@H]1O[C@@H]1O[C@H](CO)[C@H](O)[C@H](O)[C@H]1O (stereo partly drawn) [Lacto-N-tetraose]
Rattus norvegicus; subchronic, duration: 90 days, oral, M/F, Wistar
  NOAEL: 5000 mg/kg-day

## CC1COC(C)O1 (stereo not drawn) [2,4-Dimethyl-1,3-dioxolane]
Rattus norvegicus; chronic, duration: 2 years
  NOEL: 2500 mg/kg-day

## CCOC(=O)c1ccc(O)cc1 [Ethylparaben]
Rattus norvegicus; subchronic, duration: 8 weeks, M, Wistar, no effects
  NOAEL: 1040 mg/kg-day

## O=C1CCc2ccccc2O1 [3,4-Dihydrocoumarin]
Rattus norvegicus; chronic, duration: 2 years, oral, gavage
  NOAEL: 300 mg/kg-day
Rattus norvegicus; subchronic, duration: 13 weeks
  NOAEL: 150 mg/kg-day
Rattus norvegicus; subchronic, duration: 13 weeks, hematological
  NOAEL: 150 mg/kg-day

## SCCCCS [1,4-Butanedithiol]
Rattus norvegicus; subchronic, duration: 90 days, oral, diet, M/F, Sprague-Dawley, no effects
  NOAEL: 0.703 mg/kg-day (5×) and 0.705 mg/kg-day (5×)

## CCC[CH2][Sn]([CH2]CCC)([CH2]CCC)[O][Sn]([CH2]CCC)([CH2]CCC)[CH2]CCC [Bis(tributyltin)oxide]
Rattus norvegicus; chronic, duration: 2 years, oral, diet, M/F, Wistar, histopathology: neoplastic
  NOAEL: 0.025 mg/kg-day

## Oc1ccccc1 [Phenol]
Rattus norvegicus; developmental, duration: 10 days, oral, gavage, F, Sprague-Dawley, development
  NOAEL: 120 mg/kg-day
Rattus norvegicus; reproduction developmental, duration: 10 days, oral, gavage, F, body weight
  NOAEL: 60 mg/kg-day

## CCCC(C)=O [2-Pentanone]
Rattus norvegicus; subchronic, duration: 13 weeks, oral, gavage, M/F, organ weight
  NOAEL: 20 mg/kg-day

## [Cl][Sn][Cl] [Stannous chloride]
Rattus norvegicus; subchronic, duration: 90 days, oral, diet, M/F, Wistar, body weight
  NOAEL: 63 mg/kg-day

## C/C=C/C=C\CC/C=C/C(=O)NCC(C)C [(E,Z,E)-N-(2-Methylpropyl)-2,6,8-decatrienamide]
Rattus norvegicus; [7]
  NOAEL: 23.4 mg/kg-day

## Clc1cc(Cl)c(-c2cc(Cl)c(Cl)cc2Cl)cc1Cl [2,2',4,4',5,5'-Hexachlorobiphenyl]
Rattus norvegicus; [8]
  NOAEL: 1.2 mg/kg-day

## NC(N)=NCCC[C@H](N)C(=O)O [L-Arginine]
Rattus norvegicus; subchronic, duration: 13 weeks, M/F, Crj:CD, no effects
  NOAEL: 3.13 mg/kg-day

## CSSSCc1ccco1 [2-[(Methyltrisulfanyl)methyl]furan]
Rattus norvegicus; [9]
  NOAEL: 0.56 mg/kg-day

## CCOC(C)(C)C [Ethyl t-butyl ether]
Rattus norvegicus; chronic, duration: 6 months, oral, gavage, M/F, Sprague-Dawley, organ weight
  NOAEL: 100 mg/kg-day

## CSSc1cc(C)oc1C [2,5-Dimethyl-3-(methyldisulfanyl)furan]
Rattus norvegicus; [9]
  NOAEL: 5 mg/kg-day

## SCc1ccccn1 [2-Pyridinemethanethiol]
Rattus norvegicus; [2]
  NOAEL: 3.4 mg/kg-day

## CC1=C(/C=C/C(C)=C/C=C/C(C)=C/C=C/C=C(C)/C=C/C=C(C)/C=C/C2=C(C)C[C@@H](O)CC2(C)C)C(C)(C)C[C@H](O)C1 [Zeaxanthin]
Rattus norvegicus; reproduction developmental, oral, M/F, reproduction
  NOAEL: 150 mg/kg-day

## CCC=C1OC(=O)c2ccccc21 [3-Propylidenephthalide]
Rattus norvegicus; [3]
  NOAEL: 5.42 mg/kg-day

## CCNC(=O)C1CC(C)CCC1C(C)C (stereo not drawn) [N-Ethyl-2-(isopropyl)-5-methylcyclohexanecarboxamide]
Rattus norvegicus; short-term, duration: 28 days, oral, gavage, M/F, Crj:CD
  NOEL: 8 mg/kg-day

## CC(=O)c1nccs1 [2-Acetylthiazole]
Rattus norvegicus; subchronic, duration: 90 days, oral, diet, body weight
  NOAEL: 50 mg/kg-day

## CC(C)[C@@H]1CC[C@@H](C)C[C@@H]1NC(=O)C1CC1
Rattus norvegicus; subchronic, duration: 90 days, oral, diet, M/F, Sprague-Dawley, body weight
  NOAEL: 147 mg/kg-day

## COc1cccc(OC)c1 [1,3-Dimethoxybenzene]
Rattus norvegicus; subchronic, duration: 90 days, oral, no effects
  NOAEL: 10 mg/kg-day

## Cc1occc1SC(C)CC=O (stereo not drawn) [3-[(2-Methylfuran-3-yl)sulfanyl]butanal]
Rattus norvegicus; [10]
  NOAEL: 3.76 mg/kg-day

## C/C=C/C=C/C(=O)O [2E,4E-Hexadienoic acid]
Rattus norvegicus; reproduction developmental, oral, gavage, M/F, Crj:CD, body weight
  NOAEL: 300 mg/kg-day

## C=CCN=C=S [Allyl isothiocyanate]
Rattus norvegicus; chronic, duration: 103 weeks, oral, gavage, M, histopathology: nonneoplastic
  LOAEL: 9 mg/kg-day
Rattus norvegicus; chronic, duration: 721 days, oral, gavage, M/F, histopathology: neoplastic
  NOAEL: 12 mg/kg-day

## Cc1c(C)c2c(c(C)c1OC(=O)CCC(=O)O)CC[C@@](C)(CCC[C@H](C)CCC[C@H](C)CCCC(C)C)O2 [d-alpha-Tocopheryl succinate]
Rattus norvegicus; [8]
  NOAEL: 265 mg/kg-day

## CC1=C[C@H](O)CC(C)(C)[C@H]1/C=C/C(C)=C/C=C/C(C)=C/C=C/C=C(C)/C=C/C=C(C)/C=C/C1=C(C)C[C@@H](O)CC1(C)C [Lutein A]
Rattus norvegicus; subchronic, duration: 13 weeks, oral, no effects
  LEL: 260 mg/kg-day
Rattus norvegicus; [9]
  NOAEL: 200 mg/kg-day

## CC(=O)SCc1ccco1 [S-Furfuryl thioacetate]
Rattus norvegicus; [11]
  NOAEL: 3 mg/kg-day

## COc1ccc(C=CC(=O)NCCc2ccc(OC)c(OC)c2)cc1OC
Rattus norvegicus; subchronic, duration: 90 days, oral, diet, M/F, Sprague-Dawley, hematological
  NOAEL: 23 mg/kg-day

## OCc1c[nH]c2ccccc12 [Indole-3-carbinol]
Rattus norvegicus; chronic, duration: 37 weeks, oral, diet, M, no effects
  NOAEL: 50 mg/kg-day

## C=C(C)C1CC=C(C)CC1 (stereo not drawn) [Limonene]
Rattus norvegicus; chronic, duration: 103 weeks, oral, gavage, F, mortality
  NOAEL: 215 mg/kg-day
Rattus norvegicus; subchronic, duration: 13 weeks, histopathology: nonneoplastic
  NOEL: 10 mg/kg-day

## Cc1noc(C)c1Cn1cc(N2C(=O)CN(Cc3cccc(O)c3)C2=O)cn1
Rattus norvegicus; subchronic, duration: 13 weeks, oral, diet, no effects
  NOAEL: 100 mg/kg-day

## CC(=O)c1ccc[nH]1 [2-Acetylpyrrole]
Rattus norvegicus; [4]
  NOAEL: 0.048 mg/kg-day
Rattus norvegicus; [7]
  NOAEL: 48 mg/kg-day
Rattus norvegicus; [5]
  NOAEL: 48 mg/kg-day

## CC1=NCCS1 [Thiazole, 4,5-dihydro-2-methyl-]
Rattus norvegicus; subchronic, duration: 90 days
  NOAEL: 1.8 mg/kg-day
Rattus norvegicus; [10]
  NOAEL: 1.8 mg/kg-day

## NCCCCN [Putrescine]
Rattus norvegicus; oral, F, mortality
  LD50: 463 mg/kg

## OCCc1ccc(O)c(O)c1 [3,4-Dihydroxyphenylethanol]
Rattus norvegicus; [11]
  NOAEL: 50 mg/kg-day
Rattus norvegicus; subchronic, duration: 90 days, oral, gavage, Wistar, body weight
  NOAEL: 250 mg/kg-day

## Cc1occc1S [2-Methyl-3-furanthiol]
Rattus norvegicus; [6]
  NOAEL: 5 mg/kg-day

## CC(O)c1ccccc1 (stereo not drawn) [alpha-Methylbenzyl alcohol]
Rattus norvegicus; [12]
  LOAEL: 93 mg/kg-day

## Cc1cccc(C)c1N(Cn1cccn1)C(=O)CCl [Metazachlor]
Rattus norvegicus; chronic, duration: 2 years, organ weight
  NOAEL: 8.5 mg/kg-day
Rattus norvegicus; developmental, development
  NOAEL: 50 mg/kg-day
Rattus norvegicus; subchronic, duration: 90 days, oral, organ weight
  NOAEL: 21 mg/kg-day

## Clc1ccc(-c2ccc(Cl)c(Cl)c2Cl)c(Cl)c1Cl [2,2',3,3',4,4'-Hexachlorobiphenyl]
Rattus norvegicus; [8]
  NOAEL: 0.8 mg/kg-day

## CCCSSSCCC [Dipropyl trisulfide]
Rattus norvegicus; [12]
  NOEL: 4.8 mg/kg-day
